Results on 6 compounds are retold here after patent publication US12679878B2, “CRF2 receptor agonists and their use in therapy” (SANOFI, priority 2020, dated 2026).

The experiment concerns the target T1, human CRF2α receptor (Homo sapiens, UniProt Q13324).
T1 construct: expressed in transfected cells; host or cells: TeloHEAC
T1 sequence (Q13324 1-411): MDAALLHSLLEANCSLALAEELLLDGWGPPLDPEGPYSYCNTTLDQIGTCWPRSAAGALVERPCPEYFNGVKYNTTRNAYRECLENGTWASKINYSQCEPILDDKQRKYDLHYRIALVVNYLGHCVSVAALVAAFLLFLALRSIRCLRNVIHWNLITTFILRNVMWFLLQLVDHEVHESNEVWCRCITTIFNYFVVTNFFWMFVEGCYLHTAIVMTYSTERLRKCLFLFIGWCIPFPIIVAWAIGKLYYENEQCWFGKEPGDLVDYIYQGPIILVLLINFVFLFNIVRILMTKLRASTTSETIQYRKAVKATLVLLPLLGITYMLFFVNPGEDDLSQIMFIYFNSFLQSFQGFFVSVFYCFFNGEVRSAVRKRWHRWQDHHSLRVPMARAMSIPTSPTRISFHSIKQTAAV
Kind of experiment: cAMP agonism at human CRF2 α receptor in TeloHEAC cells (Example 7). It counts as cell-based. The conditions noted are these: cAMP HTRF, TeloHEAC cells stably expressing human CRF2 α. The essentials: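 Cryopreserved cells are thawed, washed and resuspended in IBMX-containing (2 mM) HEPES-buffered HBSS with or without 0.1% HSA. Compound incubation runs 30 min at room temperature with 2000 cells per well, then cAMP is measured by time-resolved FRET. Potency is expressed as EC50, efficacy relative to urocortin 2 at 1000 nM.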

[1] abbreviates: 0% HSA, read-out: EC50 [nM], 0% HSA.
The mark [2] stands for this setting: 0.1% HSA, read-out: EC50 [nM], 0.1% HSA.

Where two headings read alike, the source gives them in different places. Starred links: 1 amine or outer side, 2 acyl side, 3 side chain; linkers in the order of their positions; H or OH if unused. Non-standard residues stand in square brackets, D forms with d. Residues, ends and D or L forms follow the SMILES beside them. Groups on a side chain read outwards from the residue. *: point of attachment. C20 diacid = O=C(O)CCCCCCCCCCCCCCCCCCC(=O)*; C18 diacid = O=C(O)CCCCCCCCCCCCCCCCC(=O)*; γGlu = O=C(O)[C@H](CCC(=O)[*:2])N[*:1]; AEEA = NCCOCCOCC(=O)O; Aib = CC(C)(N)C(=O)O

The term EC50 denotes the concentration at which the effect is half-maximal. For the compound `CC[C@H](C)[C@H](NC(=O)[C@H](CCC(N)=O)NC(=O)[C@H](CCCCN)NC(=O)[C@H](CC(N)=O)NC(=O)[C@H](CCCCN)NC(=O)[C@H](CCCCN)NC(=O)[C@H](C)NC(=O)[C@H](CCCCN)NC(=O)[C@H](CCC(N)=O)NC(=O)[C@H](CCCNC(=N)N)NC(=O)[C@H](CCC(N)=O)NC(=O)[C@H](CCCCN)NC(=O)[C@H](CCCCN)NC(=O)[C@H](CCC(N)=O)NC(=O)[C@H](CCCNC(=N)N)NC(=O)[C@H](CCC(=O)O)NC(=O)[C@H](CCC(N)=O)NC(=O)[C@H](CCCCN)NC(=O)[C@H](CC(C)C)NC(=O)[C@H](CC(C)C)NC(=O)[C@@H](NC(=O)[C@H](CCC(N)=O)NC(=O)[C@H](CCCCNC(=O)COCCOCCNC(=O)COCCOCCNC(=O)CC[C@H](NC(=O)CCCCCCCCCCCCCCCCC(=O)O)C(=O)O)NC(=O)[C@@H](NC(=O)[C@H](CCCCN)NC(=O)[C@@H](NC(=O)[C@@H]1CCCN1C(=O)[C@@H](NC(=O)[C@H](CC(=O)O)NC(=O)[C@H](CC(C)C)NC(=O)[C@H](CO)NC(=O)[C@H](CC(C)C)NC(=O)[C@@H](NC(=O)[C@@H](N)Cc1ccccc1)[C@@H](C)O)C(C)C)[C@@H](C)O)[C@@H](C)CC)[C@@H](C)CC)C(=O)N[C@@H](CC(C)C)C(=O)N[C@@H](CCC(=O)O)C(=O)N[C@@H](CCCNC(=N)N)C(=O)N[C@H](C(N)=O)C(C)C` [compound 145] (H-FTLSLDVPTKIK([AEEA-AEEA-γGlu-C18 diacid])QILLKQERQKKQRQKAKKNKQILERV-NH2), the EC50 was 1.46 nM under setting [1] and 96.9 nM under setting [2].
As to `CC[C@H](C)[C@H](NC(C)=O)C(=O)N[C@H](C(=O)N[C@@H](CC(C)C)C(=O)N[C@@H](CO)C(=O)N[C@@H](CC(C)C)C(=O)N[C@@H](CC(=O)O)C(=O)N[C@H](C(=O)N1CCC[C@H]1C(=O)N[C@H](C(=O)NCC(=O)N[C@@H](CC(C)C)C(=O)N[C@@H](CCCCNC(=O)COCCOCCNC(=O)COCCOCCNC(=O)CC[C@H](NC(=O)CCCCCCCCCCCCCCCCC(=O)O)C(=O)O)C(=O)N[C@@H](CCC(N)=O)C(=O)N[C@H](C(=O)N[C@@H](CC(C)C)C(=O)N[C@@H](CC(C)C)C(=O)N[C@@H](CCC(=O)O)C(=O)N[C@@H](CCC(N)=O)C(=O)N[C@@H](CCC(=O)O)C(=O)N[C@@H](CCCCN)C(=O)N[C@@H](CCC(N)=O)C(=O)N[C@@H](CCC(=O)O)C(=O)N[C@@H](CCCCN)C(=O)N[C@@H](CCC(=O)O)C(=O)N[C@@H](CCCCN)C(=O)N[C@@H](CCC(N)=O)C(=O)N[C@@H](CCC(N)=O)C(=O)N[C@@H](C)C(=O)N[C@@H](CCC(=O)O)C(=O)N[C@H](C(=O)N[C@@H](CC(N)=O)C(=O)N[C@@H](C)C(=O)N[C@@H](CCC(N)=O)C(=O)N[C@H](C(=O)N[C@@H](CC(C)C)C(=O)N[C@@H](C)C(=O)N[C@@H](CCC(N)=O)C(=O)N[C@H](C(N)=O)C(C)C)[C@@H](C)CC)[C@@H](C)O)[C@@H](C)CC)[C@@H](C)CC)C(C)C)C(C)C` [compound 153] (Ac-IVLSLDVPIGLK([AEEA-AEEA-γGlu-C18 diacid])QILLEQEKQEKEKQQAETNAQILAQV-NH2), under setting [1], the EC50 was 33.7 nM.
For `CC[C@H](C)[C@H](N)C(=O)N[C@H](C(=O)N[C@@H](CC(C)C)C(=O)N[C@@H](CO)C(=O)N[C@@H](CC(C)C)C(=O)N[C@@H](CC(=O)O)C(=O)N[C@H](C(=O)N1CCC[C@H]1C(=O)N[C@H](C(=O)NCC(=O)N[C@@H](CC(C)C)C(=O)N[C@@H](CCCCNC(=O)COCCOCCNC(=O)COCCOCCNC(=O)CC[C@H](NC(=O)CCCCCCCCCCCCCCCCC(=O)O)C(=O)O)C(=O)N[C@@H](CCC(N)=O)C(=O)N[C@H](C(=O)N[C@@H](CC(C)C)C(=O)N[C@@H](CC(C)C)C(=O)N[C@@H](CCC(=O)O)C(=O)N[C@@H](CCC(N)=O)C(=O)N[C@@H](CCC(=O)O)C(=O)N[C@@H](CCCCN)C(=O)N[C@@H](CCC(N)=O)C(=O)N[C@@H](CCC(=O)O)C(=O)N[C@@H](CCCCN)C(=O)N[C@@H](CCC(=O)O)C(=O)N[C@@H](CCCCN)C(=O)N[C@@H](CCC(N)=O)C(=O)N[C@@H](CCC(N)=O)C(=O)N[C@@H](C)C(=O)N[C@@H](CCC(=O)O)C(=O)N[C@H](C(=O)N[C@@H](CC(N)=O)C(=O)N[C@@H](CCCCN)C(=O)N[C@@H](CCCNC(=N)N)C(=O)N[C@H](C(=O)N[C@@H](CC(C)C)C(=O)N[C@@H](CCC(=O)O)C(=O)N[C@@H](CCCNC(=N)N)C(=O)N[C@H](C(N)=O)C(C)C)[C@@H](C)CC)[C@@H](C)O)[C@@H](C)CC)[C@@H](C)CC)C(C)C)C(C)C` [compound 154] (H-IVLSLDVPIGLK([AEEA-AEEA-γGlu-C18 diacid])QILLEQEKQEKEKQQAETNKRILERV-NH2; N-terminus assumed), the EC50 under setting [1] is 15 nM and the EC50 under setting [2] came to 15.3 nM.
For the compound `CC[C@H](C)[C@H](N)C(=O)N[C@H](C(=O)N[C@@H](CC(C)C)C(=O)N[C@@H](CO)C(=O)N[C@@H](CC(C)C)C(=O)N[C@@H](CC(=O)O)C(=O)N[C@H](C(=O)N1CCC[C@H]1C(=O)N[C@H](C(=O)NCC(=O)N[C@@H](CC(C)C)C(=O)N[C@@H](CCCCNC(=O)COCCOCCNC(=O)COCCOCCNC(=O)CC[C@H](NC(=O)CCCCCCCCCCCCCCCCC(=O)O)C(=O)O)C(=O)N[C@@H](CCC(N)=O)C(=O)N[C@H](C(=O)N[C@@H](CC(C)C)C(=O)N[C@@H](CC(C)C)C(=O)N[C@@H](CCC(=O)O)C(=O)N[C@@H](CCC(N)=O)C(=O)N[C@@H](CCC(=O)O)C(=O)N[C@@H](CCCCN)C(=O)N[C@@H](CCC(N)=O)C(=O)N[C@@H](CCC(=O)O)C(=O)N[C@@H](CCCCN)C(=O)N[C@@H](CCC(=O)O)C(=O)N[C@@H](CCCCN)C(=O)N[C@@H](CCC(N)=O)C(=O)N[C@@H](CCC(N)=O)C(=O)N[C@@H](C)C(=O)N[C@@H](CCC(=O)O)C(=O)N[C@@H](CCCCN)C(=O)N[C@@H](CC(N)=O)C(=O)N[C@@H](CCCCN)C(=O)N[C@@H](CCCNC(=N)N)C(=O)N[C@H](C(=O)N[C@@H](CC(C)C)C(=O)N[C@@H](CCC(=O)O)C(=O)N[C@@H](CCCNC(=N)N)C(=O)N[C@H](C(N)=O)C(C)C)[C@@H](C)CC)[C@@H](C)CC)[C@@H](C)CC)C(C)C)C(C)C` [compound 155] (H-IVLSLDVPIGLK([AEEA-AEEA-γGlu-C18 diacid])QILLEQEKQEKEKQQAEKNKRILERV-NH2), the EC50 under setting [1] came to 8.87 nM.
As for `CC[C@H](C)[C@H](N)C(=O)N[C@H](C(=O)N[C@@H](CC(C)C)C(=O)N[C@@H](CO)C(=O)N[C@@H](CC(C)C)C(=O)N[C@@H](CC(=O)O)C(=O)N[C@@H](C(=O)N1CCC[C@H]1C(=O)N[C@H](C(=O)N[C@@H](CCCCN)C(=O)N[C@@H](CC(C)C)C(=O)N[C@@H](CCCCNC(=O)COCCOCCNC(=O)COCCOCCNC(=O)CC[C@H](NC(=O)CCCCCCCCCCCCCCCCCCC(=O)O)C(=O)O)C(=O)N[C@@H](CCC(N)=O)C(=O)N[C@H](C(=O)N[C@@H](CC(C)C)C(=O)N[C@@H](CC(C)C)C(=O)N[C@@H](CCCCN)C(=O)N[C@@H](CCC(N)=O)C(=O)N[C@@H](C)C(=O)N[C@@H](CCCNC(=N)N)C(=O)N[C@@H](CCC(N)=O)C(=O)N[C@@H](CCCCN)C(=O)NC(C)(C)C(=O)N[C@@H](CCC(N)=O)C(=O)N[C@@H](CCCNC(=N)N)C(=O)N[C@@H](C)C(=O)N[C@@H](CCC(N)=O)C(=O)N[C@@H](C)C(=O)N[C@@H](CCC(=O)O)C(=O)N[C@@H](CCCCN)C(=O)N[C@@H](CC(N)=O)C(=O)N[C@@H](CCCCN)C(=O)N[C@@H](CCCNC(=N)N)C(=O)N[C@H](C(=O)N[C@@H](CC(C)C)C(=O)N[C@@H](CCC(=O)O)C(=O)N[C@@H](CCCNC(=N)N)C(=O)N[C@H](C(N)=O)C(C)C)[C@@H](C)CC)[C@@H](C)CC)[C@@H](C)CC)C(C)C)C(C)C` [compound 175] (H-IVLSLD[dV]PIKLK([AEEA-AEEA-γGlu-C20 diacid])QILLKQARQK[Aib]QRAQAEKNKRILERV-NH2; N-terminus assumed), the 50% effective concentration (EC50) is 0.06 nM under setting [1] and 3.64 nM under setting [2].
The corresponding values for `CC[C@H](C)[C@H](N)C(=O)N[C@H](C(=O)N[C@@H](CC(C)C)C(=O)N[C@@H](CO)C(=O)N[C@@H](CC(C)C)C(=O)N[C@@H](CC(=O)O)C(=O)N[C@@H](C(=O)N1CCC[C@H]1C(=O)N[C@H](C(=O)N[C@@H](CCCCN)C(=O)N[C@@H](CC(C)C)C(=O)N[C@@H](CCCCNC(=O)COCCOCCNC(=O)COCCOCCNC(=O)CC[C@H](NC(=O)CC[C@H](NC(=O)CCCCCCCCCCCCCCCCC(=O)O)C(=O)O)C(=O)O)C(=O)N[C@@H](CCC(N)=O)C(=O)N[C@H](C(=O)N[C@@H](CC(C)C)C(=O)N[C@@H](CC(C)C)C(=O)N[C@@H](CCCCN)C(=O)N[C@@H](CCC(N)=O)C(=O)N[C@@H](CCC(=O)O)C(=O)N[C@@H](CCCNC(=N)N)C(=O)N[C@@H](CCC(N)=O)C(=O)N[C@@H](CCCCN)C(=O)N[C@@H](CCCCN)C(=O)N[C@@H](CCC(N)=O)C(=O)N[C@@H](CCCNC(=N)N)C(=O)N[C@@H](CCC(N)=O)C(=O)N[C@@H](CCC(N)=O)C(=O)N[C@@H](C)C(=O)N[C@@H](CCC(=O)O)C(=O)N[C@@H](CCCCN)C(=O)N[C@@H](CC(N)=O)C(=O)N[C@@H](CCCCN)C(=O)N[C@@H](CCC(N)=O)C(=O)N[C@H](C(=O)N[C@@H](CC(C)C)C(=O)N[C@@H](C)C(=O)N[C@@H](CCC(N)=O)C(=O)N[C@H](C(N)=O)C(C)C)[C@@H](C)CC)[C@@H](C)CC)[C@@H](C)CC)C(C)C)C(C)C` [compound 176] (H-IVLSLD[dV]PIKLK([AEEA-AEEA-γGlu-γGlu-C18 diacid])QILLKQERQKKQRQQAEKNKQILAQV-NH2; N-terminus assumed) are 0.11 nM and 3.05 nM.
